In patent US7494671B2, “Extract of Trapa natans and methods of using the same” (priority 2002, dated 2009):

Experiments:
Type in all cases: cell-based
Conditions in all cases: 50 ul saturated solution in 1 ml of cell media, in vitro
[1] = tested on: Lncap, prostate cancer cells; experiment: Cancer cell proliferation assay, Lncap
Experimental: (§1) […] For comparison purposes, the effects of two anticancer drugs, cisplatin and paclitaxel, on the growth of the three types of cancel cells were also determined in vitro.

[2] = tested on: SW 480, colorectal cancer cells; experiment: Cancer cell proliferation assay, SW 480
Experimental: as §1

[3] = tested on: HTB 72, melanoma cells; experiment: Cancer cell proliferation assay, HTB 72
Experimental: as §1

Row | Compound | Inhibition, % Lncap [1] [%] | Inhibition, % SW 480 [2] [%] | Inhibition, % HTB 72 [3] [%]
1 | N.N.[Cl][Pt][Cl] [Cisplatin, cisplatin] | 94.91 | 78.25 | 93.78
2 | CC(=O)O[C@H]1C(=O)[C@@]2(C)[C@H]([C@H](OC(=O)c3ccccc3)[C@]3(O)C[C@H](OC(=O)[C@H](O)[C@@H](NC(=O)c4ccccc4)c4ccccc4)C(C)=C1C3(C)C)[C@]1(OC(C)=O)CO[C@@H]1C[C@@H]2O [Paclitaxel, paclitaxel] | 57.98 | 0.0 | 22.61
